Assay results published in ChEMBL document CHEMBL5465560, “Selectivity Literature for EUbOPEN Chemogenomic Library” (2024).

Columns and labels:
[1] = biological target: Dual specificity tyrosine-phosphorylation-regulated kinase 1B (Homo sapiens, UniProt Q9Y463); assay: Selectivity interaction (Kinase panel (Invitrogen)) EUB0000639a DYRK1B; settings: at 200 nM
[2] = biological target: T1, Beta-adrenergic receptor kinase 1 (Homo sapiens) (UniProt P25098); assay: Selectivity interaction (Kinase panel (Invitrogen)) EUB0000639a ADRBK1; settings: at 200 nM
T1 sequence (whole entry): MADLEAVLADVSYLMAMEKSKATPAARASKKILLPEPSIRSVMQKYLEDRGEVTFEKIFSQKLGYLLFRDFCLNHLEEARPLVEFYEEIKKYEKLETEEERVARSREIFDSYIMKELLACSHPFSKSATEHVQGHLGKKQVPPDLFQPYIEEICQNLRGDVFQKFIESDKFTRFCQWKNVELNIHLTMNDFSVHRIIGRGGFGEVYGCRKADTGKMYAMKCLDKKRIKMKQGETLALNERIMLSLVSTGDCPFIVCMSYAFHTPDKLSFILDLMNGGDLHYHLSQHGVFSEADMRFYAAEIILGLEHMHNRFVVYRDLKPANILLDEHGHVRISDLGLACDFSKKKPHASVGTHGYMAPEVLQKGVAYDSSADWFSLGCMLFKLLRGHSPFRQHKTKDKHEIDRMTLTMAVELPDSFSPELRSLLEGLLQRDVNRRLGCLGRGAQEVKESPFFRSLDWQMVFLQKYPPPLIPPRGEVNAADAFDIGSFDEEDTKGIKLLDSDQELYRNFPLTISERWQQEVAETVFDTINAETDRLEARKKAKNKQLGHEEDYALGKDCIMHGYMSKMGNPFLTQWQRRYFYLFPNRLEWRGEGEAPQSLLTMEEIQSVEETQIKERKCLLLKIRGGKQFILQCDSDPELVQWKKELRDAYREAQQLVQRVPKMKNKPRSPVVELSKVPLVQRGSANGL

[3] = biological target: Serine/threonine-protein kinase MARK1 (Homo sapiens) (UniProt Q9P0L2); assay: Selectivity interaction (Kinase panel (literature)) EUB0001199aCl MARK1; settings: at 1 µM
[4] = biological target: Calcium/calmodulin-dependent protein kinase type II subunit alpha (Homo sapiens, UniProt Q9UQM7); assay: Selectivity interaction (Kinase panel (Z-LYTE Assay)) EUB0001632a CAMK2A; settings: at 10 µM
[5] = biological target: Tyrosine-protein kinase Yes (Homo sapiens) (UniProt P07947); assay: Selectivity interaction (Kinase panel (Z-LYTE Assay)) EUB0001632a YES1; settings: at 10 µM
[6] = biological target: Death-associated protein kinase 2 (Homo sapiens) (UniProt Q9UIK4); assay: Selectivity interaction (LanthaScreen Eu Kinase Binding Assay) EUB0001632a DAPK2; settings: at 10 µM
[7] = biological target: Tyrosine-protein kinase Fer (Homo sapiens) (UniProt P16591); assay: Selectivity interaction (KinomeScan (DiscoverX)) EUB0000695a FER; settings: at 100 nM
[8] = biological target: Cyclin-dependent kinase 17 (Homo sapiens) (UniProt Q00537); assay: Selectivity interaction (KinomeScan (DiscoverX)) EUB0000695a CDK17; settings: at 100 nM
[9] = biological target: T2, Receptor-interacting serine/threonine-protein kinase 1 (Homo sapiens) (UniProt Q13546); settings: at 10 µM
T2 sequence (whole entry): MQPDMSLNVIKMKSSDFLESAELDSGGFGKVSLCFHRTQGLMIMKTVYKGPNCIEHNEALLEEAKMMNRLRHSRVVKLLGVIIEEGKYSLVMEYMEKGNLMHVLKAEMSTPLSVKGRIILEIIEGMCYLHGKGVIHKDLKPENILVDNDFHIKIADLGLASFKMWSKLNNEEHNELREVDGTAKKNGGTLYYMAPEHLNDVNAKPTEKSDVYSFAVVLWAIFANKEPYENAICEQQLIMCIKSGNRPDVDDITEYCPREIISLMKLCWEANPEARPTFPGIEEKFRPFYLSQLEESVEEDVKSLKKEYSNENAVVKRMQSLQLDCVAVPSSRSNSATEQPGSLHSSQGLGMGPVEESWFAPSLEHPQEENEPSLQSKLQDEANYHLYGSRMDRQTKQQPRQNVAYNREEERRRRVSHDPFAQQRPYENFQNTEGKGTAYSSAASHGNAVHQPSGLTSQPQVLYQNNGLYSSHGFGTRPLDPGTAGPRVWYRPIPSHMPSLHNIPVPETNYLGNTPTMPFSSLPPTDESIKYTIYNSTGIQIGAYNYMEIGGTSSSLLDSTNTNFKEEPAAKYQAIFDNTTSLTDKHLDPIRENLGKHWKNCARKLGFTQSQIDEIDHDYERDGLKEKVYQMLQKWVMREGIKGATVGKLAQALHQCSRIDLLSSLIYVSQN

[10] = system: Epidermal growth factor receptor (Homo sapiens), P00533 [UNDEFINED MUTATION]; assay: Selectivity interaction (KinomeScan (DiscoverX)) EUB0000229b EGFR; settings: at 1 µM
[11] = Selectivity interaction (KinomeScan (DiscoverX)) EUB0000229b CDK2H; settings: at 1 µM
[12] = biological target: Serine/threonine-protein kinase OSR1 (Homo sapiens) (UniProt O95747); assay: Selectivity interaction (KinomeScan (DiscoverX)) EUB0000655a OXSR1; settings: at 10 µM
[13] = biological target: RAC-beta serine/threonine-protein kinase (Homo sapiens) (UniProt P31751); assay: Selectivity interaction (ActivX KiNativ screen (ex vivo kinase selectivity in human PBMCs)) EUB0001619a AKT2; type: cell-based; settings: PBMC, at 1 µM
[14] = biological target: Tyrosine-protein kinase JAK2 (Homo sapiens, UniProt O60674); assay: Selectivity interaction (ActivX KiNativ screen (ex vivo kinase selectivity in human PBMCs)) EUB0001619a JAK2; type: cell-based; settings: PBMC, at 1 µM
[15] = biological target: Activin receptor type-1-like (Homo sapiens) (UniProt P37023); assay: Selectivity interaction (KinomeScan (DiscoverX)) EUB0000607a ACVRL1; settings: at 10 µM
[16] = system: Epidermal growth factor receptor (Homo sapiens), P00533 [L861Q]; assay: (§1) Selectivity interaction (SelectScreen profiling (Invitrogen)) EUB0000607a EGFR; settings: at 2 µM
[17] = biological target: Epidermal growth factor receptor (Homo sapiens, UniProt P00533); assay: as §1; settings: at 2 µM
[18] = system: Epidermal growth factor receptor (Homo sapiens), P00533 [T790M]; assay: as §1; settings: at 2 µM
[19] = system: Epidermal growth factor receptor (Homo sapiens), P00533 [L858R]; assay: as §1; settings: at 2 µM
Epidermal growth factor receptor (Homo sapiens), P00533 [L858R], sequence (P00533 whole entry L858R): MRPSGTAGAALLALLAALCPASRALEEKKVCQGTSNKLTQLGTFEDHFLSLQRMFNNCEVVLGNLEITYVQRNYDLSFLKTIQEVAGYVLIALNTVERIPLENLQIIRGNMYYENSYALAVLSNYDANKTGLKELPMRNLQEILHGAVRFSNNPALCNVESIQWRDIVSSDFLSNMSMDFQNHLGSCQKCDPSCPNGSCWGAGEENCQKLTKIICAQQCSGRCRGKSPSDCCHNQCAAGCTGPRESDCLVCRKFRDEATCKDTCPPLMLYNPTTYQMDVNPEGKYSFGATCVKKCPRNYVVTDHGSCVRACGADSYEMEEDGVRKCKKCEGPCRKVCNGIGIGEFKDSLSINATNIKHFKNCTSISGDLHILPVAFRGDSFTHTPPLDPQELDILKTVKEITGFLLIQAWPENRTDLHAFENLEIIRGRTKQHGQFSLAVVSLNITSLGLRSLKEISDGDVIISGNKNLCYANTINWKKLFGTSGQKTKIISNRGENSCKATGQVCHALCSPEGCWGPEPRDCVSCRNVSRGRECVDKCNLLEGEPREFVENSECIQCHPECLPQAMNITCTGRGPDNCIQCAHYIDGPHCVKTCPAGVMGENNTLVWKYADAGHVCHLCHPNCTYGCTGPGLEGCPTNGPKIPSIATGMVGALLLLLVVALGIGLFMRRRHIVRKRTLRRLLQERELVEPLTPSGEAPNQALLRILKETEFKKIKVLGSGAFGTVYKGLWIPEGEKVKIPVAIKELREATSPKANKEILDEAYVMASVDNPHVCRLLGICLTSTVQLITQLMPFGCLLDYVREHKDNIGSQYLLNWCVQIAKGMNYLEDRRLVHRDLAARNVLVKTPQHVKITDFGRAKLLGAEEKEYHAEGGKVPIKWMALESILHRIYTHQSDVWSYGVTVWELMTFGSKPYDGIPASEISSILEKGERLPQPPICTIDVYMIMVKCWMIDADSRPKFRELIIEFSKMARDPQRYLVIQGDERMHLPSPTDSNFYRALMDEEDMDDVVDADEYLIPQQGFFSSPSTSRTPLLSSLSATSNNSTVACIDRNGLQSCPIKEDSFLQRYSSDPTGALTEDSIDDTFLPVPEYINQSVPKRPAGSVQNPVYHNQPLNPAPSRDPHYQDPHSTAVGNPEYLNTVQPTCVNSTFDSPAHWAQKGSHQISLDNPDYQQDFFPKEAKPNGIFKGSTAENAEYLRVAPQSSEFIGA

Dual specificity tyrosine-phosphorylation-regulated kinase 1B, sequence (Q9Y463 whole entry, looked up): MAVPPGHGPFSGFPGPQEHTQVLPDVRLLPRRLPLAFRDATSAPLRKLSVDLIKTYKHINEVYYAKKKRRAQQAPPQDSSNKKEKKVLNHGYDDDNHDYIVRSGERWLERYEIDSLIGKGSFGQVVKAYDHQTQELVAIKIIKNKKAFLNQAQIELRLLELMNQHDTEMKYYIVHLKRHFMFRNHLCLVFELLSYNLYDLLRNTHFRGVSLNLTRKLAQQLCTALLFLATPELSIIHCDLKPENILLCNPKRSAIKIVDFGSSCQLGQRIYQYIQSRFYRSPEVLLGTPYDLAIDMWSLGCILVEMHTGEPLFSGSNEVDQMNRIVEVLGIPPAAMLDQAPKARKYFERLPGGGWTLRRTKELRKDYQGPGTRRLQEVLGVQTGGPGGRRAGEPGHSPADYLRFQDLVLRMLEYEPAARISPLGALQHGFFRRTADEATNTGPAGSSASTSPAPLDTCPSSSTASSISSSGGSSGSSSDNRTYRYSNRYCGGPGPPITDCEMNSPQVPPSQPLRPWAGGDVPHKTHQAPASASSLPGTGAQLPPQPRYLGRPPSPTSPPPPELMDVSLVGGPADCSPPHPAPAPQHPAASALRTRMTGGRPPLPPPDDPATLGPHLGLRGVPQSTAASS
Activin receptor type-1-like (Homo sapiens), sequence (P37023 whole entry): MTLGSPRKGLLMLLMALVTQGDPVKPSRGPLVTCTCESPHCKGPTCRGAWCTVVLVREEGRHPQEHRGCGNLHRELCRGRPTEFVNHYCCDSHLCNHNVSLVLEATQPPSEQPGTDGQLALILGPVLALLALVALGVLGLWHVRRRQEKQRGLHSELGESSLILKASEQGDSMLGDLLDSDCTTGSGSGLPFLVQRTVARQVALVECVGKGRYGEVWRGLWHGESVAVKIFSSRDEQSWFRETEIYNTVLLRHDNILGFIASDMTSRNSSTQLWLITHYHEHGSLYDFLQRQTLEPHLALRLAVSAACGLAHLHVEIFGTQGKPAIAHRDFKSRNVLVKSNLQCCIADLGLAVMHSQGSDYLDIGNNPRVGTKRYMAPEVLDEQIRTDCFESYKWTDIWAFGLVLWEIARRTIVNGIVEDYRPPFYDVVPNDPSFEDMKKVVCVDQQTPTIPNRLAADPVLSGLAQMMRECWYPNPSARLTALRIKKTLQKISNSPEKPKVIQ
Calcium/calmodulin-dependent protein kinase type II subunit alpha, sequence (Q9UQM7 whole entry): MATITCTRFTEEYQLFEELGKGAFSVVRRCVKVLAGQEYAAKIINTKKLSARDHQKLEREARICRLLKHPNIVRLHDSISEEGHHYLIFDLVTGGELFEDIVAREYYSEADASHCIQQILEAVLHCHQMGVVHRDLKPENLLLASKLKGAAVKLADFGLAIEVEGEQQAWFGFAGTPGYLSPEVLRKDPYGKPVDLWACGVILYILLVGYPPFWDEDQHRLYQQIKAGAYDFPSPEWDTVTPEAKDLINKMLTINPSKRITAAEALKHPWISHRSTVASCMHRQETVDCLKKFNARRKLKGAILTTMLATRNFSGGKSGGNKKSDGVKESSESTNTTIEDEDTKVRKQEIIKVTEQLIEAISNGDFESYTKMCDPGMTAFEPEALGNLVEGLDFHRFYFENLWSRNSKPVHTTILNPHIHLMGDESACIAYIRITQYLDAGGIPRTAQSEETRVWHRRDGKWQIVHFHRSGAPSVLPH
Cyclin-dependent kinase 17 (Homo sapiens), sequence (Q00537 whole entry, looked up): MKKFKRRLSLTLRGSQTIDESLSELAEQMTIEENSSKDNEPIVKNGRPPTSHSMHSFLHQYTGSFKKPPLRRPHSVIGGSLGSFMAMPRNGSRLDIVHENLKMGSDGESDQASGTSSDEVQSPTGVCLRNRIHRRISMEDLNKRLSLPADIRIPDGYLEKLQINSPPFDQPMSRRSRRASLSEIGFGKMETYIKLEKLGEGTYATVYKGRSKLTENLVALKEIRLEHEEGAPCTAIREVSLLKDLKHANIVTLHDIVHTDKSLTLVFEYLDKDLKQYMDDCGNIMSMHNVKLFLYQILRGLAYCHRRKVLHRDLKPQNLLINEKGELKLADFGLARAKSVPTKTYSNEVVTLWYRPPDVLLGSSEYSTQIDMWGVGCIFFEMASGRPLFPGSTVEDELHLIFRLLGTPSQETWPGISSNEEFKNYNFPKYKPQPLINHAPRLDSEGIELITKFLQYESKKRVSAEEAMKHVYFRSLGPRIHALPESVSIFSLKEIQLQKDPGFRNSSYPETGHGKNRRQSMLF
Serine/threonine-protein kinase MARK1 (Homo sapiens), sequence (Q9P0L2 whole entry, looked up): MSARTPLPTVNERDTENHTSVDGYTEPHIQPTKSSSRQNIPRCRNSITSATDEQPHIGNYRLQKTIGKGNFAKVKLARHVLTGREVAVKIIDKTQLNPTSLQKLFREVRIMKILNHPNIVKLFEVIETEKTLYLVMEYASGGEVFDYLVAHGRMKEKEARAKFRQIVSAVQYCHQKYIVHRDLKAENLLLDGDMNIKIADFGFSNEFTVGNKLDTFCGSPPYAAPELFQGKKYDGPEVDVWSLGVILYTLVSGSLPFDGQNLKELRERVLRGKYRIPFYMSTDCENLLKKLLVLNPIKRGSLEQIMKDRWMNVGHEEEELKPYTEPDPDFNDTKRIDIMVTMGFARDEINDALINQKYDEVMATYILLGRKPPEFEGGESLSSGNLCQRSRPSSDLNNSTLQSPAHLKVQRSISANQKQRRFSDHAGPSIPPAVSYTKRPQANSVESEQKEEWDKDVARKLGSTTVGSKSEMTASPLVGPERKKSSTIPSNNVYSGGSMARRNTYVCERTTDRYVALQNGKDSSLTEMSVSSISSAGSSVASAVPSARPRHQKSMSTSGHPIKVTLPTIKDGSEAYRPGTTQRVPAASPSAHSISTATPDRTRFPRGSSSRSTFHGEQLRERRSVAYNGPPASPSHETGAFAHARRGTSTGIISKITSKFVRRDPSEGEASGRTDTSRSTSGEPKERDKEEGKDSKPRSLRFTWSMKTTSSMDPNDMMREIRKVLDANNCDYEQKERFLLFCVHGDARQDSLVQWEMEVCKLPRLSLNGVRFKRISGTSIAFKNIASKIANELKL
RAC-beta serine/threonine-protein kinase (Homo sapiens), sequence (P31751 whole entry): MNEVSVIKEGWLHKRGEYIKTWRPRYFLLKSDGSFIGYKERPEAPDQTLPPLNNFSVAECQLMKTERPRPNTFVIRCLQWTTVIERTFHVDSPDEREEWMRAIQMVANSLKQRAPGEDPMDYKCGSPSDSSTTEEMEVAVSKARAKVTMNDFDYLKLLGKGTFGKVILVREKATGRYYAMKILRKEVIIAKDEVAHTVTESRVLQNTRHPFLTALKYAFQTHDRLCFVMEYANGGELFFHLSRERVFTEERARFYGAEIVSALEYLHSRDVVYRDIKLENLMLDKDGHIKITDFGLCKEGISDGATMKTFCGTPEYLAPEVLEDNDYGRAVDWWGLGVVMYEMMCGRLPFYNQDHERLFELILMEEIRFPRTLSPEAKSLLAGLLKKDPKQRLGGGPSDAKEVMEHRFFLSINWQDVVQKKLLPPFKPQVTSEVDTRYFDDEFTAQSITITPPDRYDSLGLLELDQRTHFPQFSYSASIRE
Death-associated protein kinase 2 (Homo sapiens), sequence (Q9UIK4 whole entry, looked up): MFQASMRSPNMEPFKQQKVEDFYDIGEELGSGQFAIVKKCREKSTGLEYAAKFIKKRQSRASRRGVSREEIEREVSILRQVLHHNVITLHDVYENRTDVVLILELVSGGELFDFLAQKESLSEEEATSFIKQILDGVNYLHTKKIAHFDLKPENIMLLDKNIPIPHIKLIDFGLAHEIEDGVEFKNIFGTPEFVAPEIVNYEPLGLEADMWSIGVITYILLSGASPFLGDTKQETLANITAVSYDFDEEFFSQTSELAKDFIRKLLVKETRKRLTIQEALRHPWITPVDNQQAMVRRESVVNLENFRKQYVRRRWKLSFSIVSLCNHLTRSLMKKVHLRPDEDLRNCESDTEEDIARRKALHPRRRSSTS

CC[C@@H]1[C@H](F)C(=O)N[C@@H]1COc1nccc2cc(C(N)=O)c(OC)cc12 [ZIMLOVISERTIB]
% of inhibition [1]: 16.5% | % of inhibition [2]: 0.284%

CN1Cc2nccc(-c3cn(C)nc3-c3ccc(F)cc3)c2C1=O
% of inhibition [3]: 8%

Cn1cc(-n2cnc3c(NCc4nc5cc(Cl)c(Cl)cc5[nH]4)nc(N4CCOCC4)nc32)cn1
% of control [4]: -0.947% | % of control [5]: 0.787% | % of inhibition [6]: -5.23%

Cc1cc(F)c(C(=O)Nc2cccc(-c3nncn3C(C)C)n2)cc1-n1cnc(C2CC2)c1
% of control [7]: 72% | % of control [8]: 100%

CCN(CC)CCCCNc1ncc2cc(-c3cc(OC)cc(OC)c3)c(NC(=O)NC(C)(C)C)nc2n1
% of control [9]: 100%

COc1cc(N(C)c2ccnc3ccc(C(F)(F)F)cc23)cc(OC)c1OC
% binding [10]: 95% | % binding [11]: 100%

CN(C)CCOc1ccc(-c2nc(-c3ccncc3)c(-c3ccc4c(c3)CC/C4=N\O)[nH]2)cc1
% of control [12]: 100%

N#Cc1cccc(-c2c[nH]c3ncnc(N4CCOCC4)c23)c1
% of inhibition [13]: 7% | % of inhibition [14]: 17%

CNC(=O)Nc1ccc(-c2nc(N3CC4CCC(C3)O4)c3cnn(C4CCC5(CC4)OCCO5)c3n2)cc1
% of control [15]: 100% | % of inhibition [16]: -1% | % of inhibition [17]: 1% | % of inhibition [18]: 2% | % of inhibition [19]: 3%
